{"source": "patent US12286632B2", "about": "“Rationally-designed synthetic peptide shuttle agents for delivering polypeptide cargos from an extracellular space to the cytosol and/or nucleus of a target eukaryotic cell, uses thereof, methods and kits relating to same” (Feldan Bio Inc., priority 2016, dated 2025)", "key": {"[1]": {"experiment": "in vitro", "conditions": "human, HeLa cells"}, "[2]": {"test_system": "HeLa cells", "experiment": "Plasmid DNA (pEGFP-C1) transfection by peptides (% cells with GFP signal, cell viability)", "conditions": "DNA transfection in HeLa cells using peptides; pEGFP-C1 plasmid"}, "[3]": {"experiment": "in vitro", "conditions": "human, HeLa cells; for viability: Cell viability (%) (±St Dev.; n = 3)"}, "[4]": {"test_system": "HeLa cells", "experiment": "GFP-NLS protein transduction assay (flow cytometry: Pos cells %, viability %, relative fluorescence intensity; microscopy)", "conditions": "HeLa cells"}, "[5]": {"test_system": "HeLa cells", "conditions": "human, 10 s, 50 µM"}, "[6]": {"experiment": "in vitro", "conditions": "human, HCC-78 cells"}, "[7]": {"experiment": "in vitro", "conditions": "human, NCI-H196 cells"}, "[8]": {"test_system": "THP-1 cells", "experiment": "HOXB4-WT transduction: target gene mRNA by real-time PCR (Fold over control) and total RNA (ng/μL) as marker for cell viability", "type": "cell-based, human", "conditions": "THP-1, serum", "method": "Control and treated cells are transferred to separate sterile 1.5-mL tubes and centrifuged for 5 minutes at 300g. The cell pellets are resuspended in appropriate buffer to lyse the cells. RNAase-free 70% ethanol is then added followed by mixing by pipetting. The lysates are transferred to an RNeasy™ Mini spin column and centrifuged 30 seconds at 13000 RPM. After several washes with appropriate buffers and centrifugation steps, the eluates are collected in sterile 1.5-mL tubes on ice, and the RNA quantity in each tube is then quantified with a spectrophotometer. For DNase treatment, 2 μg of RNA is diluted in 15 μL of RNase-free water. 1.75 μL of 10X DNase buffer and 0.75 μL of DNase is then added, followed by incubation at 37° C. for 15 minutes. For reverse transcriptase treatment, 0.88 μL of EDTA […] is added, followed by incubation at 75° C. for 5 minutes. In a PCR tube, […] of DNase-treated RNA is mixed with 4 μL of iScript™ Reverse transcription Supermix (5X) and […] of nuclease-free water. The mix is incubated in a PCR machine with the following program: 5 min at 25° C., 30 min at 42° C. and 5 min at 85° C. Newly synthesized cDNA is transferred in sterile 1.5-mL tubes and diluted in 2 μL of nuclease-free water. 18 μL per well of a qPCR machine (CFX-96™) mix is then added in a PCR plate for analysis.\nBriefly, THP-1 cells were plated at 30 000 cells/well one day before transduction. HOXB4-WT recombinant protein ([…]; Example 14.1) was co-incubated with different concentrations of His-CM18-PTD4 ([…]) and then exposed to THP-1 cells for 2.5 hours in the presence of serum. The cells were subjected to real time-PCR analysis as described in Example 14.2 to measure the mRNA levels of a target gene as a marker for HOXB4 activity, which was then normalized to the target gene mRNA levels detected in the negative control cells (no treatment), to obtain a “Fold over control” value. Total RNA levels (ng/μL) were also measured as a marker for cell viability.\nBriefly, THP-1 cells were plated at 30 000 cells/well one day before the first time course experiment. HOXB4-WT recombinant protein (1.5 μM; Example 14.1) was co-incubated with His-CM18-PTD4 (0.8 μM) and then exposed to THP-1 cells for 0, 2.5, 4, 24 or 48 hours in presence of serum. The cells were subjected to real time-PCR analysis as described in Example 14.2 to measure mRNA levels of a target gene as a marker for HOXB4 activity, which was then normalized to the target gene mRNA levels detected in the negative control cells (no treatment), to obtain a “Fold over control” value. Total RNA levels (ng/μL) were also measured as a marker for cell viability.\nBriefly, THP-1 cells were plated at 30 000 cells/well one day before the first time course experiment. HOXB4-WT recombinant protein (0.3 μM; Example 14.1) was co-incubated with His-CM18-PTD4 (0.8 μM) and then exposed to THP-1 cells for 0, 0.5, 1, 2, 2.5, 3 or 4 hours in presence of serum. The cells were subjected to real time-PCR analysis as described in Example 14.2 to measure mRNA levels of a target gene as a marker for HOXB4 activity, which was then normalized to target gene mRNA levels detected in the negative control cells (no treatment), to obtain a “Fold over control” value. Total RNA levels (ng/μL) were also measured as a marker for cell viability.\nBriefly, THP-1 cells were plated at 30 000 cells/well one day before the first time course experiment. HOXB4-WT recombinant protein (1.5 μM; Example 14.1) co-incubated with the shuttle agents His-CM18-PTD4, TAT-KALA, EB1-PTD4, His-C(LLKK)3C-PTD4 and His-CM18-PTD4-His at 0.8 μM, and then exposed to THP-1 cells for 2.5 hours in presence of serum. The cells were subjected to real time-PCR analysis as described in Example 14.2 to measure mRNA levels of a target gene as a marker for HOXB4 activity, which was then normalized to target gene mRNA levels detected in the negative control cells (no treatment), to obtain a “Fold over control” value. […]"}, "[9]": {"conditions": "Cell viability (%) (±St. Dev.; n = 3)"}}, "note": "Ends that are not written are not given here. Peptide text beside a SMILES is read from it."}
{"molecule": "CC(C)C[C@H](NC(=O)[C@H](CC(C)C)NC(=O)[C@H](CCCCN)NC(=O)[C@H](CCCCN)NC(=O)[C@H](CC(C)C)NC(=O)[C@H](CC(C)C)NC(=O)[C@H](CCCCN)NC(=O)[C@H](CCCCN)NC(=O)[C@H](CC(C)C)NC(=O)[C@H](CC(C)C)NC(=O)[C@@H](N)CS)C(=O)N[C@@H](CCCCN)C(=O)N[C@@H](CCCCN)C(=O)N[C@@H](CS)C(=O)O", "note": "[C(LLKK)3] (H-CLLKKLLKKLLKKC-OH; N-terminus and C-terminus assumed)", "values": [{"measurement": "viability", "setting": "[1]", "value": "81.7 ± 2.34", "unit": "%"}, {"measurement": "Mean % cells with GFP signal (±St. Dev.; n = 3)", "setting": "[2]", "value": "0.00 ± 0.00", "unit": "%"}]}
{"molecule": "CC[C@H](C)[C@H](NC(=O)[C@H](CCCCN)NC(=O)[C@H](CCCCN)NC(=O)[C@H](Cc1ccccc1)NC(=O)[C@H](CC(C)C)NC(=O)[C@H](CCCCN)NC(=O)[C@H](Cc1c[nH]c2ccccc12)NC(=O)[C@@H](N)CCCCN)C(=O)NCC(=O)N[C@@H](C)C(=O)N[C@H](C(=O)N[C@@H](CC(C)C)C(=O)N[C@@H](CCCCN)C(=O)N[C@H](C(=O)N[C@@H](CC(C)C)C(=O)N[C@H](C(=O)N[C@H](C(=O)NCC(=O)N[C@@H](CCCNC(=N)N)C(=O)N[C@@H](CCC(N)=O)C(=O)N[C@H](C(=O)N[C@@H](CCCCN)C(=O)N[C@H](C(=O)N[C@@H](Cc1c[nH]c2ccccc12)C(=O)N[C@@H](Cc1ccccc1)C(=O)N[C@@H](CCC(N)=O)C(=O)N[C@@H](CC(N)=O)C(=O)N[C@@H](CCCNC(=N)N)C(=O)N[C@@H](CCCNC(=N)N)C(=O)N[C@@H](CCSC)C(=O)N[C@@H](CCCCN)C(=O)N[C@@H](Cc1c[nH]c2ccccc12)C(=O)N[C@@H](CCCCN)C(=O)N[C@@H](CCCCN)C(=O)N[C@@H](CS)C(=O)O)[C@@H](C)CC)[C@@H](C)CC)[C@@H](C)O)[C@@H](C)O)C(C)C)C(C)C", "note": "[CM18-Pen-Cys]", "values": [{"measurement": "viability", "setting": "[1]", "value": "16.1 ± 0.12", "unit": "%"}, {"measurement": "Mean % cells with GFP signal (±St. Dev.; n = 3)", "setting": "[2]", "value": "0.01 ± 0.0", "unit": "%"}]}
{"molecule": "CC(C)C[C@H](NC(=O)[C@H](CCCNC(=N)N)NC(=O)[C@H](CCC(=O)O)NC(=O)CNC(=O)[C@H](CCC(N)=O)NC(=O)[C@@H](NC(=O)[C@H](Cc1c[nH]c2ccccc12)NC(=O)[C@H](CC(C)C)NC(=O)[C@H](CCCCN)NC(=O)[C@H](CC(C)C)NC(=O)[C@H](CC(C)C)NC(=O)[C@H](CCCNC(=N)N)NC(=O)[C@H](CO)NC(=O)[C@H](Cc1c[nH]c2ccccc12)NC(=O)[C@H](CC(C)C)NC(=O)[C@H](CS)NC(=O)[C@H](CC(C)C)NC(=O)[C@H](CC(C)C)NC(=O)[C@H](Cc1c[nH]cn1)NC(=O)[C@H](Cc1c[nH]cn1)NC(=O)[C@H](Cc1c[nH]cn1)NC(=O)[C@H](Cc1c[nH]cn1)NC(=O)[C@H](Cc1c[nH]cn1)NC(=O)[C@@H](N)Cc1c[nH]cn1)[C@@H](C)O)C(=O)N[C@@H](CCCCN)C(=O)N[C@@H](C)C(=O)N[C@@H](CCCCN)C(=O)N[C@@H](CS)C(=O)N[C@@H](C)C(=O)N[C@@H](CCCCN)C(=O)N[C@@H](C)C(=O)N[C@@H](CS)C(=O)N[C@@H](CCC(=O)O)C(=O)N[C@@H](CCCNC(=N)N)C(=O)O", "note": "[FSD24] (H-HHHHHHLLCLWSRLLKLWTQGERLKAKCAKACER-OH; N-terminus and C-terminus assumed)", "values": [{"measurement": "viability", "setting": "[3]", "value": "75.3 ± 3.93", "unit": "%"}, {"measurement": "viability", "setting": "[1]", "value": "96.5 ± 3.02", "unit": "%"}, {"measurement": "Mean % cells with GFP signal (±St. Dev.; n = 3)", "setting": "[2]", "value": "0.20 ± 0.00", "unit": "%"}, {"measurement": "Mean % cells with GFP signal (±St. Dev.; n = 3)", "setting": "[4]; Table B2, GFP-NLS cargo", "value": "37.48 ± 4.08", "unit": "%"}]}
{"molecule": "GLFEALLELLESLWELLLEAYARAAARQARA [JST-PTD4]", "values": [{"measurement": "Cell viability (%) (±St. Dev.; n = 3)", "setting": "[5]", "value": "98.9 ± 0.57", "unit": "%"}, {"measurement": "viability", "setting": "[1]", "value": "70.2 ± 5.39", "unit": "%"}]}
{"molecule": "HHHHHHCMKVVWEIVLAKYKGGGGRARAASRRARA [FSD42]", "values": [{"measurement": "viability at 1 min, 10 µM", "setting": "[3]; [9]", "value": "97.3 ± 1.07", "unit": "%"}, {"measurement": "viability", "setting": "[1]", "value": "96.7 ± 1.96", "unit": "%"}, {"measurement": "Mean % cells with GFP signal (±St. Dev.; n = 3)", "setting": "[2]", "value": "0.12 ± 0.02", "unit": "%"}, {"measurement": "Mean % cells with GFP signal (±St. Dev.; n = 3)", "setting": "[4]; Table C3, GFP-NLS 10 μM, 10 μM of the peptide, 1 min", "value": "1.59 ± 0.39", "unit": "%"}]}
{"molecule": "HHHHHHHHHKWKLFKKIGAVLKVLTTGYARAAARQARA [Peptide 9His-CM18-PTD4]", "values": [{"measurement": "viability", "setting": "[1]", "value": "98.72 ± 0.93", "unit": "%"}, {"measurement": "Mean % cells with GFP signal (±St. Dev.; n = 3)", "setting": "[2]", "value": "0.04 ± 0.01", "unit": "%"}]}
{"molecule": "HHHHHHLLKLWSRLLKLWTQGRRLKAKRAKAHHHHHH [FSD5]", "values": [{"measurement": "viability", "setting": "[3]", "value": "86 ± 7.45", "unit": "%"}, {"measurement": "viability at 1 min, 8 µM", "setting": "[3]; [9]", "value": "85 ± 6.27", "unit": "%"}, {"measurement": "viability at 1 min, 10 µM", "setting": "[3]; [9]", "value": "76 ± 7.45", "unit": "%"}, {"measurement": "viability at 2 min, 5 µM", "setting": "[3]; [9]", "value": "35.5 ± 4.82", "unit": "%"}, {"measurement": "viability", "setting": "[1]", "value": "93.2 ± 8.63", "unit": "%"}, {"measurement": "viability at 1 min, 8 µM", "setting": "[6]", "value": "87.7 ± 6.52", "unit": "%"}, {"measurement": "viability at 1 min, 10 µM", "setting": "[6]", "value": "15.9 ± 0.83", "unit": "%"}, {"measurement": "viability at 2 min, 5 µM", "setting": "[6]", "value": "75.3 ± 6.18", "unit": "%"}, {"measurement": "viability at 1 min, 8 µM", "setting": "[7]", "value": "69.9 ± 6.38", "unit": "%"}, {"measurement": "viability at 1 min, 10 µM", "setting": "[7]", "value": "47.2 ± 3.54", "unit": "%"}, {"measurement": "viability at 2 min, 5 µM", "setting": "[7]", "value": "77.2 ± 6.17", "unit": "%"}]}
{"molecule": "HOXB4-WT", "values": [{"measurement": "Fold over control (mean ± St. Dev)", "setting": "[8]; Table 14.1, 2.5 hours, shuttle 0 μM, HOXB4-WT 1.5 μM (alone)", "value": "4.3 ± 0.1"}, {"measurement": "Fold over control (mean ± St. Dev)", "setting": "[8]; Table 14.2, shuttle 0 μM, HOXB4-WT 1.5 μM (alone), exposure 2.5 h", "value": "3.4 ± 0.3"}, {"measurement": "Fold over control (mean ± St. Dev)", "setting": "[8]; Table 14.3, shuttle 0.8 μM, HOXB4-WT 0 μM (alone), exposure 2.5 h", "value": "1 ± 0.14"}, {"measurement": "Fold over control (mean ± St. Dev)", "setting": "[8]; Table 14.4, shuttle 0.8 μM, HOXB4-WT 0 μM (alone), exposure 2.5 h", "value": "1 ± 0.11"}]}
